# Measured values published in patent US20230293482A1, “CENTRAL NERVOUS SYSTEM POTENTIATING COMPOSITION” (priority 2020, published 2023).
# Key:
# Wistar male rats [1] = test: Blood flow of the cremasteric arteriole, 50% effective dose; assay type: in vivo; details: 1, 10, 100, 1000 μg/kg of body weight intragastric, 60 minutes after administration, laser Doppler
# Description: Cannula was inserted into the stomach of Wistar male rats under anesthesia, and the cremaster muscle was prepared, Not only a dimer, a trimer or a tetramer obtained by condensing (2R,3R)-2-(3,4-dihydroxyphenyl)-3,4-dihydro-2H-chromene-3,5,7-triol by a 4β→8 bond, 2-(3,4-dihydroxylphenyl)chromenylium-3,5,7-triol, or 2-(3,4,5-trihydroxyphenyl)chromenylium-3,5,7-triol, but also (2R,3R)-2-(3,4-dihydroxyphenyl)-3,4-dihydro-2H-chromene-3,5,7-triol, 2-(3,4-hydroxyphenyl-3,5,7-trihydroxy-4H-1-benzopyran-4-one (quercetin), (2R,3R)-5,7-dihydroxy-2-(3,4,5-trihydroxyphenyl)-3,4-dihydro-2H-chromen-3-yl] 3,4,5-trihydroxybenzoate (EGCG), (2S)-5-hydroxy-2-(3-hydroxy-4-methoxyphenyl)-7-[(2S,3R,4S,5S,6R)-3,4,5-trihydroxy-6-[[(2R,3R,4R,5R,6S)-3,4,5-trihydroxy-6-methylaxan-2-yl]oxymethyl]oxan-2-yl]oxy-2,3-dihydrochromen-4-one (hesperidin), 7-hydroxy-3(4-hydroxyphenyl)chromen-4-one (daidzein), (1E,6E)-1,7-bis(4-hydroxy-3-methoxyphenyl)hepta-1,6-diene-3,5-dione (curcumin), 5-[(E)-2-(4-hydroxyphenypenyl)ethenyl]-1,3-benzenediol (resveratrol), and (2R,3R)-2-(4-hydroxyphenyl)-3-(3,5-dihydroxyphenyl)-6-[(E)-4-hydroxystyryl]-2,3-dihydrobenzofuran-4-ol (Gnefin C), were administered to the rats at doses of 1, 10, 100, and 1000 μg/kg of body weight. A fluctuation in the blood flow of the cremasteric arteriole 60 minutes after the administration was measured using a laser Doppler blood-flowmeter. […] The 50% effective dose of the compound obtained by condensing (2R,3R)-2-(3,4-dihydroxyphenyl)-3,4-dihydro-2H-chromene-3,5,7-triol by a 4β→8 bond was in the range of 1 to 30 μg/kg of body weight, whereas the 50% effective dose of 2-(3,4-dihydroxyphenyl)chromenylium-3,5,7-triol or 2-(3,4,5-trihydroxylphenyl)chromenylium-3,5,7-triol was in the range of 50 to 100 μg/kg of body weight.
# healthy volunteers = test: Astringency sensory test, solutions held in oral cavity; assay type: in vivo, human; details: for astringency felt on oral ingestion: compared with other polyphenol compounds; for concentration at which astringency is exhibited in almost all cases: gradually diluted solutions held in oral cavity, ten healthy volunteers
# Excerpt: Ten healthy volunteers held in their oral cavity, solutions obtained by gradually diluting (2R,3R)-2-(3,4-dihydroxyphenyl)-3,4-dihydro-2H-chromene-3,5,7-triol, and a dimer, a trimer or a tetramer obtained by condensing the above compound by a 4β→8 bond, 2-(3,4-dihydroxyphenyl)chromenylium-3,5,7-triol or 2-(3,4,5-trihydroxylphenyl)chromenylium-3,5,7-triol, 2-(3,4-hydroxyphenyl-3,5,7-trihydroxy-4H-1-benzopyran-4-one (quercetin), (2R,3R)-5,7-dihydroxy-2-(3,4,5-trihydroxyphenyl)-3,4-dihydro-2H-chromen-3-yl] 3,4,5-trihydroxybenzoate (EGCG), (2S)-5-hydroxy-2-(3-hydroxy-4-methoxyphenyl)-7-[(2S,3R,4S,5S,6R)-3,4,5-trihydroxy-6-[[(2R,3R,4R,5R,6S)-3,4,5- trihydroxy-6-methyloxan-2-yl]oxymethyl]oxan-2-yl]oxy -2,3-dihydrochromen-4-one (hesperidin), 7-hydroxy-3-(4-hydroxyphenyl)chromen-4-one (daidzein), and (1E,6E)-1,7-bis(4-hydroxy-3-methoxyphenyl)hepta-1,6-diene-3,5-dione (curcumin), and the concentrations at which the volunteers felt astringency were then observed.
# Wistar male rats [2] = test: Neovascularization, CD31 immunostaining of muscle; assay type: in vivo; details: 1 mg/kg of body weight for 14 days, compared with control group
# Description: Wistar male rats were divided into 2 groups, and thereafter, a tetramer of 2-(3,4-dihydroxyphenyl)-3-(D-glucopyranooxyl)chromenylium-3,5,7-triol (1 mg/kg of body weight) was co-administered. to the laboratory animals for 14 days, Thereafter, the animals were subjected to dissection. A frozen section was prepared from the excised extensor digitorum longus muscle or soleus muscle, and CD31 serving as a neovascularization marker was then detected by applying an immunostaining method.
# Wistar male rats [3] = test: Blood pressure after repeated administration with/without N-acetylcysteine; assay type: in vivo
# Description: Wistar male rats were divided into 4 groups, and thereafter, 2-(3,4-dihydroxyphenyl)-3-(D-glucopyranooxyl)chromenylium-3,5,7-triol (1 mg/kg of body weight) and/or N-acetylcysteine (100 mg/kg of body weight) were co-administered to the laboratory animals for 14 days. Thereafter, the blood pressure of the animals was measured over time, using a non-heated type sphygmomanometer.
# C57BL/6 male mice = test: Open field locomotor activity / wakening after single administration; assay type: in vivo; details: 25 μg/kg of body weight, open field 60 minutes; for locomotor activity: compared with control group; for wakening state: control animals repeated sleeping and wakening
SMILES,fluctuation in the blood flow of the cremasteric arteriole (Wistar male rats [1]),astringency felt on oral ingestion (healthy volunteers),concentration at which astringency is exhibited in almost all cases (healthy volunteers) [µg/mL],CD31 expression / neovascularization in extensor digitorum longus or soleus muscle (Wistar male rats [2]),blood pressure change on co-administration with N-acetylcysteine (Wistar male rats [3]; 1 mg/kg of body weight + N-acetylcysteine 100 mg/kg for 14 days),"blood pressure (Wistar male rats [3]; 1 mg/kg of body weight for 14 days, Day 7 and Day 14)",locomotor activity (C57BL/6 male mice),wakening state (C57BL/6 male mice)
"Oc1cc(O)c2cc(O)c(-c3cc(O)c(O)c(O)c3)[o+]c2c1 [2-(3,4,5-trihydroxylphenyl)chromenylium-3,5,7-triol]",dose-dependent blood flow-increasing action,strong astringency,10,,,,,
"OC[C@H]1OC(Oc2cc3c(O)cc(O)cc3[o+]c2-c2ccc(O)c(O)c2)[C@H](O)[C@@H](O)[C@@H]1O (stereo partly drawn) [2-(3,4-dihydroxyphenyl)-3-(D-glucopyranooxyl)chromenylium-3,5,7-triol]",,,,a significant expression of CD31 was observed,disappeared,significantly decreased,,
"Oc1cc(O)c2cc(O)c(-c3ccc(O)c(O)c3)[o+]c2c1 [2-(3,4-dihydroxyphenyl)chromenylium-3,5,7-triol]",dose-dependent blood flow-increasing action,strong astringency,10,,,,significantly increased,the animals were in a wakening state
Oc1cc(O)c2c(c1)O[C@H](c1ccc(O)c(O)c1)[C@H](O)[C@H]2c1c(O)cc(O)c2c1O[C@H](c1ccc(O)c(O)c1)[C@H](O)C2 [dimer],dose-dependent blood flow-increasing action,,10,,,,significantly increased,the animals were in a wakening state
Oc1cc(O)c2c(c1)O[C@H](c1ccc(O)c(O)c1)[C@H](O)[C@H]2c1c(O)cc(O)c2c1O[C@H](c1ccc(O)c(O)c1)[C@H](O)[C@H]2c1c(O)cc(O)c2c1O[C@H](c1ccc(O)c(O)c1)[C@H](O)C2 [trimer],dose-dependent blood flow-increasing action,,10,,,,significantly increased,the animals were in a wakening state
